The kinase profiling compilation of Christmann-Franck et al. (2016)

Tests used:
Test in all cases: KINOMEscan competition binding
Details in all cases: compound 10.0 µM
[1] = test system: FLT3 (human), P36888 [N841I]
ADCK4 (human) = ADCK4 (human) (UniProt Q96D53)
AXL (human) = AXL (human) (UniProt P30530)
BRSK2 (human) = BRSK2 (human) (UniProt Q8IWQ3)
MAP3K4 (human) = MAP3K4 (human) (UniProt Q9Y6R4)
DAPK2 (human) = DAPK2 (human) (UniProt Q9UIK4)
EPHA6 (human) = EPHA6 (human) (UniProt Q9UF33)
MAP2K6 (human) = MAP2K6 (human) (UniProt P52564)
AAK1 (human) = AAK1 (human) (UniProt Q2M2I8)
[2] = biological target: JAK1 JH1 catalytic (human) (UniProt P23458)
STK3 (human) = STK3 (human) (UniProt Q13188)
SGK110 (human) = SGK110 (human) (UniProt P0C264)
CIT (human) = CIT (human) (UniProt O14578)
CSNK1G1 (human) = CSNK1G1 (human) (UniProt Q9HCP0)
IRAK3 (human) = IRAK3 (human) (UniProt Q9Y616)
TEC (human) = TEC (human) (UniProt P42680)
STK32B (human) = STK32B (human) (UniProt Q9NY57)
MLTK (human) = MLTK (human) (UniProt Q9NYL2)
MARK2 (human) = MARK2 (human) (UniProt Q7KZI7)
TEK (human) = TEK (human) (UniProt Q02763)
WEE2 (human) = WEE2 (human) (UniProt P0C1S8)
CDC42BPA (human) = CDC42BPA (human) (UniProt Q5VT25)
NTRK3 (human) = NTRK3 (human) (UniProt Q16288)
WEE1 (human) = WEE1 (human) (UniProt P30291)
ITK (human) = ITK (human) (UniProt Q08881)
DCLK2 (human) = DCLK2 (human) (UniProt Q8N568)
CDK18 (human) = CDK18 (human) (UniProt Q07002)
PTK6 (human) = PTK6 (human) (UniProt Q13882)
ULK2 (human) = ULK2 (human) (UniProt Q8IYT8)
MAP3K7 (human) = MAP3K7 (human) (UniProt O43318)
ULK1 (human) = ULK1 (human) (UniProt O75385)
MAPK3 (human) = MAPK3 (human) (UniProt P27361)
PDPK1 (human) = PDPK1 (human) (UniProt O15530)
IKBKE (human) = IKBKE (human) (UniProt Q14164)
[3] = test system: FLT3 (human), P36888 [ITD]
CDK8 (human) = CDK8 (human) (UniProt P49336)
PAK4 (human) = PAK4 (human) (UniProt O96013)
RIPK2 (human) = RIPK2 (human) (UniProt O43353)
MKNK1 (human) = MKNK1 (human) (UniProt Q9BUB5)
EPHA5 (human) = EPHA5 (human) (UniProt P54756)

Chain of ADCK4 (human) (Q96D53 whole entry, looked up): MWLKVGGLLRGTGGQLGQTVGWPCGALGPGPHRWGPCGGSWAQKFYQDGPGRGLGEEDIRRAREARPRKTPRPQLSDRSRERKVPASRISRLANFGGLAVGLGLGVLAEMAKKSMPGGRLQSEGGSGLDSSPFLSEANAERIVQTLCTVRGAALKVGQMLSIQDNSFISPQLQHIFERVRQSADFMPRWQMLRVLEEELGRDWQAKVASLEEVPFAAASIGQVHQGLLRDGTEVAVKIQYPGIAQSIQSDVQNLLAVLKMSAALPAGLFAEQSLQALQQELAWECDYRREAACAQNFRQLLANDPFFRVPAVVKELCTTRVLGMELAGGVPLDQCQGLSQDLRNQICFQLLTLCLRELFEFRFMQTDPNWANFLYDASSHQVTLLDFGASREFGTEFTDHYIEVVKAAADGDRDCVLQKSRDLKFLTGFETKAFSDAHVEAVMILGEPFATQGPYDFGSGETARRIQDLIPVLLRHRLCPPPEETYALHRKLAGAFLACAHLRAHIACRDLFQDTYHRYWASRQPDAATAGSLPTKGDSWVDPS
Chain of TEC (human) (P42680 whole entry, looked up): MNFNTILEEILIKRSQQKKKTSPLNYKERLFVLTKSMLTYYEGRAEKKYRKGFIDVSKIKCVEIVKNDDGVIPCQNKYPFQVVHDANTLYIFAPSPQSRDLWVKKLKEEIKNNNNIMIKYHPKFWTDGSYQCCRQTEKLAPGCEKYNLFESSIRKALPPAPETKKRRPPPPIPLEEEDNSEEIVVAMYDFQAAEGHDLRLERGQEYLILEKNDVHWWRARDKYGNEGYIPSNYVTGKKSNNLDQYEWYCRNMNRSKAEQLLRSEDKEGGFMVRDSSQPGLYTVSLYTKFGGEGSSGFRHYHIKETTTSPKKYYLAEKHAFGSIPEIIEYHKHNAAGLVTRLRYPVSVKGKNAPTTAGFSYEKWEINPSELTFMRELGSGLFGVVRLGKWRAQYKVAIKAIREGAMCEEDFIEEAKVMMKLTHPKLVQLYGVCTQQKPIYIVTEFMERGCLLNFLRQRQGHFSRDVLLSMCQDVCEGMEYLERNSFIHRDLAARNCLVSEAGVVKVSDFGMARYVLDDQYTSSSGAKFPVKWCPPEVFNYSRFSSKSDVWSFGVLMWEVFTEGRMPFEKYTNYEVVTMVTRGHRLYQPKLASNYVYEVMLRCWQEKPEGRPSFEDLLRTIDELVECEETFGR
Chain of MKNK1 (human) (Q9BUB5 whole entry, looked up): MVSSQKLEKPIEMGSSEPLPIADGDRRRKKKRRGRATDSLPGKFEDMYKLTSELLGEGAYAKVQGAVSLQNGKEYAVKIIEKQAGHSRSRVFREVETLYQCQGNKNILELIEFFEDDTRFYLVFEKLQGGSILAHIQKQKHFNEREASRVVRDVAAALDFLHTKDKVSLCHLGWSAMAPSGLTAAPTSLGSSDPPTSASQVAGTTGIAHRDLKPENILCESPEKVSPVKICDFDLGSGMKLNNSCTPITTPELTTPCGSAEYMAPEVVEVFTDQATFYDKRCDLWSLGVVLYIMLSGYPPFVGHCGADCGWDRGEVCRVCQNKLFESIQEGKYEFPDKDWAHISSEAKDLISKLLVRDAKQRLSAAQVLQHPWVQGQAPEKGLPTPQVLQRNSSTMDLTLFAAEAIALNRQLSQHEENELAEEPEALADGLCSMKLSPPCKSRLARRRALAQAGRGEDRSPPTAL
Chain of IKBKE (human) (Q14164 whole entry, looked up): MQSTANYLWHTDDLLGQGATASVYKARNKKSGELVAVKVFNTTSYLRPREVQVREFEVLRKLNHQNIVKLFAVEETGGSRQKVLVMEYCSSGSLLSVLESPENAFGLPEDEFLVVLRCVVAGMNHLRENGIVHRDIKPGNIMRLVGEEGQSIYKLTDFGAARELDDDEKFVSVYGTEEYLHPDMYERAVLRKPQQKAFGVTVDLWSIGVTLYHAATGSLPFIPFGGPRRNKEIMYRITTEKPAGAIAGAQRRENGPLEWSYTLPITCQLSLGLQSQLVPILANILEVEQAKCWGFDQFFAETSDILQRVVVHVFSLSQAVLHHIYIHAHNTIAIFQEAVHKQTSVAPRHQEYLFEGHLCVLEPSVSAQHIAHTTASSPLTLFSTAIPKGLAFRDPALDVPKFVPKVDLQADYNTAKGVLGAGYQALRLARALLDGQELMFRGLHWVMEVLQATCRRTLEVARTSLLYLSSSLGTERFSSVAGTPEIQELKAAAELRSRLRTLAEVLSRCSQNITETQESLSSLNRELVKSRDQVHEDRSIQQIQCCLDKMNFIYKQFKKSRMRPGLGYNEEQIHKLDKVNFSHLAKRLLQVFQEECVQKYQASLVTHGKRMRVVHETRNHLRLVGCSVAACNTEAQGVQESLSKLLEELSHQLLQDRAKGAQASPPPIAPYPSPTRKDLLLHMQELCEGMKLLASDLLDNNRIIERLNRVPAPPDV
Chain of WEE2 (human) (P0C1S8 whole entry, looked up): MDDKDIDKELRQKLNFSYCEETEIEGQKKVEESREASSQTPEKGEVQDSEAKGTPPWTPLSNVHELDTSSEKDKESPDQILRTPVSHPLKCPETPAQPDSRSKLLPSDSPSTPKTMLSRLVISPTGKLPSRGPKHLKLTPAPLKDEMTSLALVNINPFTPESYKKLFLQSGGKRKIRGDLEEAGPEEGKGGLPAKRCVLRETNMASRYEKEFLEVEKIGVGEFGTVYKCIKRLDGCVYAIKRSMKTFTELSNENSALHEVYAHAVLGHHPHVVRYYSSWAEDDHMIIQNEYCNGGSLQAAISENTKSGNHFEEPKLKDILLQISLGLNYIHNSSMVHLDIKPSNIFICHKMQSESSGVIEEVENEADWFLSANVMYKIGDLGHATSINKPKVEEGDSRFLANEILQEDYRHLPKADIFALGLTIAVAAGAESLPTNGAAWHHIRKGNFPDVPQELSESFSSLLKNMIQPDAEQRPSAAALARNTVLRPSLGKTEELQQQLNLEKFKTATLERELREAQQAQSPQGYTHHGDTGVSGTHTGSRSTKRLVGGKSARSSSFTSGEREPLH
Chain of MLTK (human) (Q9NYL2 whole entry, looked up): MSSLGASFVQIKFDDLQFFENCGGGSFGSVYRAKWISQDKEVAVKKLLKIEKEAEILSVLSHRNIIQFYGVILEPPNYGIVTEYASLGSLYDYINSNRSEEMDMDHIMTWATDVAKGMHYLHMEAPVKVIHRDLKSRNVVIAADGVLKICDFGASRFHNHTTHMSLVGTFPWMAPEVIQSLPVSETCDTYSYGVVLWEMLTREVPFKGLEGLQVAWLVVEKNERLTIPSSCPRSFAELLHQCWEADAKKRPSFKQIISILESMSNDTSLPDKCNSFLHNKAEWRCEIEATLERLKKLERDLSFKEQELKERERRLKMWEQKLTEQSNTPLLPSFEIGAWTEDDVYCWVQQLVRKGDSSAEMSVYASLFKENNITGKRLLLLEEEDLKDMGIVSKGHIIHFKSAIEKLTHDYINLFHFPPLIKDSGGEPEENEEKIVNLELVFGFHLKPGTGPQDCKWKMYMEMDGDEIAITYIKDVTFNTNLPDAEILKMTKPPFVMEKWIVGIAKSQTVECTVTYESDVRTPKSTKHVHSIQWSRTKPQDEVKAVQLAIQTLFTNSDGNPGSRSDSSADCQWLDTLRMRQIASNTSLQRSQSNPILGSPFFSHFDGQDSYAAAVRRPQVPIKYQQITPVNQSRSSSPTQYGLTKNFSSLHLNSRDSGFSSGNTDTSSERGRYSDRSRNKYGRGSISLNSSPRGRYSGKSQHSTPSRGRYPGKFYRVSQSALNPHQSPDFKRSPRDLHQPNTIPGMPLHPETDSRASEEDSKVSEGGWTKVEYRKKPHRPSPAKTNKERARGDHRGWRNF
Chain of EPHA6 (human) (Q9UF33 whole entry, looked up): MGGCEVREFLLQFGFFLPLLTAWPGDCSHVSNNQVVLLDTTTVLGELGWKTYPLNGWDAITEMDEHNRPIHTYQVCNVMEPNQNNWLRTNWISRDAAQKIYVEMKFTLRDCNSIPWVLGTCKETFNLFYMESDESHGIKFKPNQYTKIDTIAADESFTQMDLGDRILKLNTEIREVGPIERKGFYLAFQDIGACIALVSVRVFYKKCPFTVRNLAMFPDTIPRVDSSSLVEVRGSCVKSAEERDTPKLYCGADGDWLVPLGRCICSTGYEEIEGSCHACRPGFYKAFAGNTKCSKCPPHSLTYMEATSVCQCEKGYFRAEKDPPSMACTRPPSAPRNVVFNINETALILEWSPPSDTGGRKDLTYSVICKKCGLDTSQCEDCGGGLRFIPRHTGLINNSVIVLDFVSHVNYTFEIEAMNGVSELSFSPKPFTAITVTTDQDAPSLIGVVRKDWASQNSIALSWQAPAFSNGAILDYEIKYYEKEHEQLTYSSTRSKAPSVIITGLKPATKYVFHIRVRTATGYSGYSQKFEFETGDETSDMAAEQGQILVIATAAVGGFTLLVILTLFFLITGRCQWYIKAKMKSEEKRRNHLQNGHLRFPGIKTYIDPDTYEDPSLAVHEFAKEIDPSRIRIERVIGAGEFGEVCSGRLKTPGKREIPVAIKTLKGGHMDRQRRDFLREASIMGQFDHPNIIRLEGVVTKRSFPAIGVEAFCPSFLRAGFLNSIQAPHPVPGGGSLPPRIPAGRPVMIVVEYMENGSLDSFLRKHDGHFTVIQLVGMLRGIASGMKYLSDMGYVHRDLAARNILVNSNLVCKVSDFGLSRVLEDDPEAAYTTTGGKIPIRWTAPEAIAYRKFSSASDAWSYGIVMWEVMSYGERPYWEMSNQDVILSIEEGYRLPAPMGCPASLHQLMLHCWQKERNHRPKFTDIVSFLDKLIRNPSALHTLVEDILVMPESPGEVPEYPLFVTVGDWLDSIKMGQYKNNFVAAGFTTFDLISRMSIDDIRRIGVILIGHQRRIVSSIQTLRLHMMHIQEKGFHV

Compound	kinase still bound, per cent of control [1]	kinase still bound, per cent of control (ADCK4 (human))	kinase still bound, per cent of control (AXL (human))	kinase still bound, per cent of control (BRSK2 (human))	kinase still bound, per cent of control (MAP3K4 (human))	kinase still bound, per cent of control (DAPK2 (human))	kinase still bound, per cent of control (EPHA6 (human))	kinase still bound, per cent of control (MAP2K6 (human))	kinase still bound, per cent of control (AAK1 (human))	kinase still bound, per cent of control [2]	kinase still bound, per cent of control (STK3 (human))	kinase still bound, per cent of control (SGK110 (human))	kinase still bound, per cent of control (CIT (human))	kinase still bound, per cent of control (CSNK1G1 (human))	kinase still bound, per cent of control (IRAK3 (human))	kinase still bound, per cent of control (TEC (human))	kinase still bound, per cent of control (STK32B (human))	kinase still bound, per cent of control (MLTK (human))	kinase still bound, per cent of control (MARK2 (human))	kinase still bound, per cent of control (TEK (human))	also measured
COc1cc(N2CCN(C)CC2)ccc1Nc1nc(N)c(C(=O)c2c(Cl)cccc2Cl)s1	47%	81%	100%	87%	100%	86%	99%	85%	61%	100%	85%	100%	94%	100%	90%	69%	76%	100%	90%	88%	kinase still bound, per cent of control (WEE2 (human)): 100%; kinase still bound, per cent of control (CDC42BPA (human)): 100%; kinase still bound, per cent of control (NTRK3 (human)): 100%; kinase still bound, per cent of control (WEE1 (human)): 100%; kinase still bound, per cent of control (ITK (human)): 91%; kinase still bound, per cent of control (DCLK2 (human)): 4.1%; kinase still bound, per cent of control (CDK18 (human)): 78%; kinase still bound, per cent of control (PTK6 (human)): 100%; kinase still bound, per cent of control (ULK2 (human)): 72%; kinase still bound, per cent of control (MAP3K7 (human)): 78%; kinase still bound, per cent of control (ULK1 (human)): 93%; kinase still bound, per cent of control (MAPK3 (human)): 100%; kinase still bound, per cent of control (PDPK1 (human)): 100%; kinase still bound, per cent of control (IKBKE (human)): 87%; kinase still bound, per cent of control [3]: 87%; kinase still bound, per cent of control (CDK8 (human)): 100%; kinase still bound, per cent of control (PAK4 (human)): 100%; kinase still bound, per cent of control (RIPK2 (human)): 70%; kinase still bound, per cent of control (MKNK1 (human)): 51%; kinase still bound, per cent of control (EPHA5 (human)): 100%
Cc1cc([C@@H](C)Nc2ccccc2C(=O)O)c2nc(N3CCOCC3)cc(=O)n2c1	44%	79%	86%	100%	100%	92%	100%	92%	95%	100%	66%	100%	89%	68%	58%	91%	71%	100%	90%	100%	kinase still bound, per cent of control (WEE2 (human)): 100%; kinase still bound, per cent of control (CDC42BPA (human)): 96%; kinase still bound, per cent of control (NTRK3 (human)): 98%; kinase still bound, per cent of control (WEE1 (human)): 100%; kinase still bound, per cent of control (ITK (human)): 98%; kinase still bound, per cent of control (DCLK2 (human)): 100%; kinase still bound, per cent of control (CDK18 (human)): 100%; kinase still bound, per cent of control (PTK6 (human)): 75%; kinase still bound, per cent of control (ULK2 (human)): 100%; kinase still bound, per cent of control (MAP3K7 (human)): 89%; kinase still bound, per cent of control (ULK1 (human)): 91%; kinase still bound, per cent of control (MAPK3 (human)): 95%; kinase still bound, per cent of control (PDPK1 (human)): 100%; kinase still bound, per cent of control (IKBKE (human)): 85%; kinase still bound, per cent of control [3]: 53%; kinase still bound, per cent of control (CDK8 (human)): 79%; kinase still bound, per cent of control (PAK4 (human)): 100%; kinase still bound, per cent of control (RIPK2 (human)): 94%; kinase still bound, per cent of control (MKNK1 (human)): 92%; kinase still bound, per cent of control (EPHA5 (human)): 99%
C=CC(=O)Nc1cc(NC(=O)c2ccc(C)c(NC(=O)c3ccno3)c2)cc(C(F)(F)F)c1	82%	97%	100%	100%	100%	97%	93%	100%	77%	100%	100%	100%	97%	100%	100%	100%	100%	6%	100%	100%	kinase still bound, per cent of control (WEE2 (human)): 84%; kinase still bound, per cent of control (CDC42BPA (human)): 100%; kinase still bound, per cent of control (NTRK3 (human)): 100%; kinase still bound, per cent of control (WEE1 (human)): 100%; kinase still bound, per cent of control (ITK (human)): 93%; kinase still bound, per cent of control (DCLK2 (human)): 100%; kinase still bound, per cent of control (CDK18 (human)): 91%; kinase still bound, per cent of control (PTK6 (human)): 100%; kinase still bound, per cent of control (ULK2 (human)): 100%; kinase still bound, per cent of control (MAP3K7 (human)): 98%; kinase still bound, per cent of control (ULK1 (human)): 100%; kinase still bound, per cent of control (MAPK3 (human)): 97%; kinase still bound, per cent of control (PDPK1 (human)): 94%; kinase still bound, per cent of control (IKBKE (human)): 100%; kinase still bound, per cent of control [3]: 99%; kinase still bound, per cent of control (CDK8 (human)): 100%; kinase still bound, per cent of control (PAK4 (human)): 93%; kinase still bound, per cent of control (RIPK2 (human)): 100%; kinase still bound, per cent of control (MKNK1 (human)): 100%; kinase still bound, per cent of control (EPHA5 (human)): 80%
